Assay results taken from paper PMC6218249 (Bioorganic & medicinal chemistry letters, 2018).
In brackets after ≈: the same amount, converted by molar mass.

Experiments:
physchem = settings: pH 7.4
[1] = In vivo pharmacokinetics in C57BL/6 mice; settings: C57BL/6, mouse, plasma, other: intravenous and oral, 3 mg/kg

solubility (physchem) [µM]	half-life [1] [h]	SMILES	PAMPA (x10^−6 cm/s) (PAMPA permeability)
–	–	NS(=O)(=O)c1ccc(-c2cnn3cc(-c4ccc(N5CCNCC5)nc4)cnc23)c2ccccc12 [Compound 12]	8.3 x10^−6 cm/s
–	–	CN(C)CCOc1ccc(-c2cnc3c(-c4ccc(S(N)(=O)=O)c5ccccc45)cnn3c2)cn1 [Compound 13]	8.8 x10^−6 cm/s
–	–	NS(=O)(=O)c1ccc(-c2cnn3cc(-c4ccc(OCCN5CCCCC5)nc4)cnc23)c2ccccc12 [Compound 14]	364.7 x10^−6 cm/s
–	–	NS(=O)(=O)c1ccc(-c2cnn3cc(-c4ccc(C5CCNCC5)cc4)cnc23)c2ccccc12 [Compound 15]	78.6 x10^−6 cm/s
–	–	CC(C)(CN1CCCCC1)Oc1ccc(-c2cnc3c(-c4ccc(S(N)(=O)=O)c5ccccc45)cnn3c2)cc1 [Compound 17]	1920.5 x10^−6 cm/s
–	–	NS(=O)(=O)c1ccc(-c2cnn3cc(-c4ccc(OCCN5CCCC5)cc4)cnc23)c2ccccc12 [Compound 18]	317 x10^−6 cm/s
–	–	CC(C)(N)c1ccc(-c2cnc3c(-c4ccc(S(N)(=O)=O)c5ccccc45)cnn3c2)cc1 [Compound 20]	9.4 x10^−6 cm/s
–	–	NS(=O)(=O)c1ccc(-c2cnn3cc(-c4ccc(CN5CCCC5)cc4)cnc23)c2ccccc12 [Compound 22]	467 x10^−6 cm/s
14 (≈ 6.97 µg/mL)	3 to 4	CC(c1ccc(-c2cnc3c(-c4ccc(S(N)(=O)=O)c5ccccc45)cnn3c2)cc1)N1CCCC1 (centres unmarked) [Compound 23]	1116.0 x10^−6 cm/s
